Consider 1 molecule from patent US9481687B2, “IRAK inhibitors and uses thereof” (Nimbus Iris, Inc., priority 2012, dated 2016).

In experiment [1] the target is T1, IRAK4 (Homo sapiens, UniProt Q9NWZ3).
T1 construct: purchased CARNA Bioscience 09-145
T1 sequence (Q9NWZ3 1-460): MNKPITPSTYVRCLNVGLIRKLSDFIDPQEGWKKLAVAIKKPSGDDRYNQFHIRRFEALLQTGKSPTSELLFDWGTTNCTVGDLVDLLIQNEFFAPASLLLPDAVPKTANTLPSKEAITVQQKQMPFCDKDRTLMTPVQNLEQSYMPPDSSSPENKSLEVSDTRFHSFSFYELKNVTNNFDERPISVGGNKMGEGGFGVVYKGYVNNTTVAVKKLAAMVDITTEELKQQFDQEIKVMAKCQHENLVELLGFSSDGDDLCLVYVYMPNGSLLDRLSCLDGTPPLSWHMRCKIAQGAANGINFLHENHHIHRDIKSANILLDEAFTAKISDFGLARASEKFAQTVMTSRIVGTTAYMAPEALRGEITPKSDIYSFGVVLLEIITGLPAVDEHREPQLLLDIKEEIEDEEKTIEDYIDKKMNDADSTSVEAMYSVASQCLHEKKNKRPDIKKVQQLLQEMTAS
Description: IRAK-4 activity inhibition assay (Caliper). It is filed as biochemical. The conditions noted are these: 3.5 nM IRAK4, 37 μM ATP, 1.5 μM Peptide 8. As to the method: A 1× kinase base buffer was prepared from 50 mM HEPES, pH 7.5 and 0.0015% Brij-35. A stop buffer was prepared from 100 mM HEPES, pH 7.5, 0.015% Brij-35, 0.2% Coating Reagent #3, and 50 mM EDTA.
Test compound was diluted to 50× of the final desired highest inhibitor concentration in reaction by 100% DMSO. 100 ul of this compound dilution was transferred to a well in a 96-well plate.
Test compound was serially diluted by transferring 30 μl to 60 μl of 100% DMSO in the next well and so forth for a total of 10 concentrations. 100 μl of 100% DMSO was added to two empty wells for no compound control and no enzyme control in the same 96-well plate.
A new 96-well plate was marked as intermediate plate. 5 μl of compound serial dilution was transferred from source plate to the corresponding wells of the intermediate plate. 45 μl of 1× kinase base buffer (KB buffer) was added to each well of the intermediate plate. The intermediate plate was placed for 10 min on a shaker.
5 μl of each well was transferred from the 96-well intermediate plate to a 384-well plate in duplicates. For example, A1 of the 96-well plate is transferred to A1 and A2 of the 384-well plate. A2 of the 96-well plate is transferred to A3 and A4 of the 384-well plate, and so on.
IRAK4 and DTT in 1× kinase base buffer was added. The 2.5× enzyme mix contained 8.8 nM IRAK4 and 5 mM DTT.
Peptide 8, ATP, MgCl2 and MnCl2 were added in the 1× kinase base buffer. The 2.5× peptide mix contained 3.75 μM peptide 8, 92.5 μM ATP, 12.5 mM MgCl2 and 2.5 mM MnCl2.
Assay plate already contained 5 μl of compound in 10% DMSO. Added 10 μl of 2.5× enzyme solution to each well of the 384-well assay plate, except no enzyme control wells. The final concentration of IRAK4 in reaction was 3.5 nM. Added 10 μl of 1× kinase base buffer to no enzyme control wells in the assay plate. Incubated at room temperature for 10 min.
Added 10 μl of 2.5× peptide solution to each well of the 384-well assay plate. The final concentration of Peptide 8 and ATP was 1.5 μM and 37 μM, respectively. Incubated at 28° C. for 40 minutes. Added 25 μl of stop buffer to stop reaction. Collected data on Caliper.
Copied conversion % data from Caliper program. Converted conversion % values to percent inhibition values. Percent inhibition=(max−conversion %)/(max−min)*100, where “max” means the conversion % of DMSO control and “min” means the conversion % of no enzyme control.

The subject of experiment [2] is THP-1 cells. Description: LPS-induced cytokine production assay, TNFα. The conditions noted are these: Homo sapiens, 300 ng/mL LPS, 5 hours, read-out: TNF (5 h). The format is cell-based. The protocol: (§1) Provided compounds were also assayed in an LPS (Lipopolysacharide) or R848 (TLR-7 agonist) induced cytokine (e.g. TNFα and IL8) production assay in THP-1 cells, human peripheral blood mononuclear cells (hPBMC), and whole blood. The exemplary protocol for this assay in THP-1 cells was as follows below.
(§2) THP-1 cells from ATCC (TIB-202) were cultured in RPMI Medium 1640 (Invitrogen, Cat No. A10491-01), 10% fetal bovine serum (Invitrogen, Cat No. 10099141, Lot No. 8172882) containing 100 U/mL Penicillin, 100 μg/mL streptomycin (Invitrogen, Cat No. 15140-122), and 50 uM 2-Mercaptoethanol (Invitrogen, Cat No. 21985023). LPS-EK ultra pure (Invivogen, Cat No. tlrl-peklps) was used to induce IL8 and TNFα production, that is detected in the cell culture supernatant by IL8 HTRF kit (Cisbio, Cat No. 62IL8PEB) and TNFα HTRF kit (Cisbio, Cat No. 62TNFPEB), as per manufacturer instructions. Cells were cultured in 96 well assay plates at 100,000 cells per well, and compounds diluted in final 0.3% DMSO were pre-incubated with cells for 1 hour prior to stimulation with 300 ng/mL LPS. Cytokine production in cell supernatant was measured at 5 hours for TNFα and IL8 production, and for 16 hours for IL8 production and assessment of cell viability.

The test system of experiment [3] is THP-1 cells. Description: LPS-induced cytokine production assay, IL8. It is filed as cell-based. As to conditions: Homo sapiens, 300 ng/mL LPS, 16 hours, read-out: IL-8 (16 h). As to the method: as §1, §2

Molecules are shown by their SMILES. pIC50: −log10 of the molar value.

As to `CN[C@H]1CC[C@H](Nc2ncnc3sc4ccccc4c23)CC1` [I-9, (1r,4r)-N1-(benzo[4,5]thieno[2,3-d]pyrimidin-4-yl)-N4-methylcyclohexane-1,4-diamine], the figures for the pIC50 in experiment [1], in experiment [2] and in experiment [3] were 6.00 to 7.00, at most 6.00 and at least 6.00, respectively.
